Assay results as given in patent US20120178666A1 (SHIRE LLC, priority 2009, published 2012).
Counter-ions that a name gives are not always drawn. Like-named read-outs stand apart in the source and are kept apart here.

What was measured:
[1] = Comparative bioavailability study of guanfacine in monkeys (full pharmacokinetics); assay type: in vivo, cynomolgus monkey; conditions: oral gavage, monkey
Experimental: The characteristics of the test animals are set out in Table 13.
The following pharmacokinetic parameters derived from the plasma analytical data were determined using Win Nonlin;

gut motility = assay: Charcoal propulsion test (gut motility); assay type: in vivo, rat
Experimental: The effect of a drug on gut motility can be studied by means of the charcoal propulsion test.
The method used was based on that described by Takemori et al. (J. Pharmacol. Exp. Ther. 169:39, 1969). Test treatments were administered orally 60 minutes prior to an oral dose of a 10% suspension of charcoal in 2.5% gum Arabic (2 ml/kg). Twenty minutes after dosing with charcoal, the rats were sacrificed and the entire gastrointestinal tract was removed quickly and carefully. The distance that the charcoal meal had travelled toward the caecum was measured and expressed as a percentage of the total gut length.

[2] = Prodrug stability in simulated gastric fluid (USP); conditions: 37° C.
Experimental: (§1) The remaining concentrations of the prodrugs were then assayed by HPLC.

[3] = Prodrug stability in simulated intestinal fluid (USP); conditions: 37° C.
Experimental: as §1

[4] = Comparative bioavailability study in monkeys in the fasted or fed state; assay type: in vivo, cynomolgus monkey
Experimental: Five male cynomolgus monkeys were used. Food was withdrawn from animals in fasted groups from the evening of the day prior to dosing until approximately 4 hours after dosing.
The formulations were prepared on the day of dosing and administered orally as soon as practicable up to a maximum of 2 hours after formulation.
Blood samples (0.5 mL) were collected from all animals pre-dose and at 0.5, 1, 2, 3, 4, 6, 8 10, 12, 16 and 24 hours after dosing.
Following processing, the resultant plasma was frozen and analysed by a qualified method. Pharmacokinetic evaluation was performed using a validated pharmacokinetic software package.

[5] = Comparative pharmacokinetic screening study of guanfacine prodrugs in the monkey; conditions: oral gavage
Experimental: Blood samples were taken on 4 sampling occasions at various times up to 6 hours after administration and submitted to analysis for the parent drug and prodrug using a qualified LC-MS-MS assay.

[6] = Pharmacokinetics in rats in hepatic portal and tail veins following oral administration; assay type: in vivo; conditions: rat, equimolar dose
Experimental: Rats were surgically prepared under isofluorane anaesthesia by attaching a silicon catheter to the portal vein then exteriorising it at the nape of the neck with a blood collection port attached.
At each sampling time serial point blood samples (approximately 0.2 mL) were taken simultaneously from the lateral tail vein cannula and the hepatic portal cannula. After collection of the final blood sample each animal was killed by cervical dislocation. Blood samples were collected at 15, 30 minutes and 1, 2, 4, 8 and 24 hours post dose.
Pharmacokinetic parameters in portal and systemic plasma were derived by non-compartmental analysis (linear/logarithmic trapezoidal) using WinNonlin (Version 4.1) software.

[7] = immediate release guanfacine (TENEX); cited from earlier work
[8] = Rattus norvegicus, po, read-out: % inhibition of GIT transit compard to vehicle
[9] = Rattus norvegicus, po, Study 1, oral dose 0.1 mg/kg guanfacine free base equivalents, read-out: % inhibition of GIT transit compard to vehicle
[10] = Rattus norvegicus, po, Study 1, oral dose 0.3 mg/kg guanfacine free base equivalents, read-out: % inhibition of GIT transit compard to vehicle
[11] = Rattus norvegicus, po, Study 1, oral dose 1 mg/kg guanfacine free base equivalents, read-out: % inhibition of GIT transit compard to vehicle
[12] = Rattus norvegicus, po, Study 1, oral dose 3 mg/kg guanfacine free base equivalents, read-out: % inhibition of GIT transit compard to vehicle
[13] = Rattus norvegicus, po, Study 1, oral dose 5 mg/kg guanfacine free base equivalents, read-out: % inhibition of GIT transit compard to vehicle

| Compound | plasma guanfacine profile (in words) [1] | inhibition at 0.1 mg/kg (gut motility; [8]) [%] | inhibition at 0.3 mg/kg (gut motility; [8]) [%] | inhibition at 1 mg/kg (gut motility; [8]) [%] | % prodrug remaining following incubation for: 1 h in simulated gastric fluid pH 1.1 [2] [%] | % prodrug remaining following incubation for: 2 h in simulated intestinal fluid pH 6.8 [3] [%] | inhibition at 0.1 mg/kg (gut motility; [9]) [%] | inhibition at 0.3 mg/kg (gut motility; [10]) [%] | inhibition at 1 mg/kg (gut motility; [11]) [%] | inhibition at 3 mg/kg (gut motility; [12]) [%] | inhibition at 5 mg/kg (gut motility; [13]) [%] | prodrug levels in plasma (in words) [5] | comparative systemic exposure to guanfacine (in words) [6] | also measured |
| --- | --- | --- | --- | --- | --- | --- | --- | --- | --- | --- | --- | --- | --- | --- |
| CC(C)[C@H](NC(=O)CCCC(=O)NC(=N)NC(=O)Cc1c(Cl)cccc1Cl)C(=O)O [Compound 1, guanfacine-[glutaryl-(S)-valine] amide trifluoroacetate] | sustained guanfacine concentrations | 9 | 6 | 45 | 80 | 92 |  |  |  |  |  |  |  | inhibition at 3 mg/kg (gut motility; [8]): 50%; inhibition at 5 mg/kg (gut motility; [8]): 53% |
| CC(C)[C@H](N)C(=O)NCCC(=O)NC(=N)NC(=O)Cc1c(Cl)cccc1Cl [Compound 2, guanfacine-β-alanine-(S)-valine amide di-trifluoroacetate] |  |  |  |  | 75 | 89 | -3 | 30 | 42 | 42 | 42 | detectable prodrug levels in plasma |  | mean Cmax (ng/mL) prodrug ([4]; Fasted, 0.5 mg/kg guanfacine equivalent, oral): BLQ |
| CC(C)[C@@H](N)C(=O)N[C@@H](CCC(=O)NC(=N)NC(=O)Cc1c(Cl)cccc1Cl)C(=O)O [Compound 5, guanfacine-γ-(S)-glutamic acid-(R)-valine amide di-trifluoroacetate] | sustained guanfacine concentrations |  |  |  | 86 | 89 | 6 | 22 | 48 | 44 | 42 |  |  | inhibition at 1.7 mg/kg (gut motility; Rattus norvegicus, po, Study 1, oral dose 1.7 mg/kg guanfacine free base equivalents, read-out: % inhibition of GIT transit compard to vehicle): 50% |
| CNCC(=O)N[C@@H](COC(=O)NC(=N)NC(=O)Cc1c(Cl)cccc1Cl)C(=O)O [Compound 61, (S)-serine(guanfacine)-sarcosine carbamate di-trifluoroacetate] |  | 8 | 25 | 31 | 92 | 96 |  |  |  |  |  | detectable prodrug levels in plasma | similar |  |
| CNCC(=O)N[C@H](C(=O)O)[C@@H](C)OC(=O)NC(=N)NC(=O)Cc1c(Cl)cccc1Cl [Compound 63, sarcosine-(2S,3R)-threonine(guanfacine) carbamate di-trifluoroacetate] |  | 0 | 13 | 49 | 86 | 99 |  |  |  |  |  | detectable prodrug levels in plasma | similar |  |
| N=C(N)NC(=O)Cc1c(Cl)cccc1Cl [Guanfacine, guanfacine, reference compound] |  |  |  |  |  |  | 52 | 55 | 47 |  |  |  |  | food effect (in words) ([4]; fasted vs fed): apparent absence of a food effect; inhibition at 0.03 mg/kg (gut motility; Rattus norvegicus, po, Study 2, oral dose 0.03 mg/kg guanfacine free base equivalents, read-out: % inhibition of GIT transit compard to vehicle): 13%; inhibition at 0.1 mg/kg (gut motility; Rattus norvegicus, po, Study 2, oral dose 0.1 mg/kg guanfacine free base equivalents, read-out: % inhibition of GIT transit compard to vehicle): 41%; inhibition at 0.3 mg/kg (gut motility; Rattus norvegicus, po, Study 2, oral dose 0.3 mg/kg guanfacine free base equivalents, read-out: % inhibition of GIT transit compard to vehicle): 56%; reduction in the distance travelled by the charcoal plug within 20 minutes compared to control group (gut motility; oral, 0.1 mg base/kg): 41-52%; time at which peak plasma drug levels are reached after dosing [7]: ≥ 1 h |
